In brackets after ≈: the same amount, converted by molar mass. Where a SMILES comes first, the peptide text is derived from it.

We go through nine compounds from article PMC8074941, “Synthesis of cyclotetrapeptide analogues of c-PLAI and evaluation of their antimicrobial properties” (Royal Society Open Science, 2021).

One data set relates to T. mentagrophyte. The data set is described as follows: microbe, parasite or virus in culture. The following applies: 18 h. On the procedure: (§1) Tools and materials were sterilized in an autoclave for 15 min at 121°C. Fungal culture was grown in agar media (Potato Dextrose agar) by picking some fungal colony using an inoculating loop, followed by incubation at 30°C for 24–48 h. Fungal culture was then suspended in liquid media (Potato Dextrose Broth). The suspended fungal culture was then incubated for 24–48 h at 30°C. The suspended fungal culture was then incubated at 30°C for 24 h and standardized equal to 0.5 Mc Farland (2 × 10^8 CFU ml^−1). The culture was diluted into the concentration of 5 × 10^5 CFU ml^−1.
(§2) Six tetrapeptides and six cyclotetrapeptides were dissolved in DMSO 2% with a concentration of 1 µg mL^−1. Each solution was dissolved gradually. Subsequently, 12 sample solutions, ciprofloxacin, nystatin, ketoconazole and DMSO 2% were incubated on a 96-well microplate at 37°C for 18 h. The result was interpreted using a spectrophotometer, with a wavelength of 600 nm. MIC was measured as the percentage of microbial inhibition and cell death.

The next data set relates to B. cereus ATCC 11778. The data set is described as follows: microbe, parasite or virus in culture. The following applies: for minimum inhibitory concentration (MIC) B. cereus ATCC 11778: ATCC 11778, 18 h. On the procedure:
(§3) Tools and materials were sterilized in an autoclave for 15 min at 121°C. Bacterial culture was grown in agar media (Mueller Hinton agar) by picking some bacterial colony using an inoculating loop, followed by incubation at 37°C for 24 h. Bacterial culture was then suspended in liquid media (Mueller Hinton Broth). The suspended bacterial culture was then incubated at 37°C for 24 h and standardized equal to 0.5 Mc Farland (2 × 10^8 CFU ml^−1). The culture was diluted into the concentration of 5 × 10^5 CFU ml^−1.
as §2

Another data set concerns S. aureus ATCC 6538. The data set is described as follows: microbe, parasite or virus in culture. As to conditions: for minimum inhibitory concentration (MIC) S. aureus ATCC 6538: ATCC 6538, 18 h. On the procedure:
as §3, §2

A further data set concerns K. pneumonia ATCC 2357. The data set is described as follows: microbe, parasite or virus in culture. The following applies: for minimum inhibitory concentration (MIC) K. pneumonia ATCC 2357: ATCC 2357, 18 h. On the procedure:
as §3, §2

The next data set deals with E. coli ATCC 11229. As to the kind of experiment: microbe, parasite or virus in culture. As to conditions: for minimum inhibitory concentration (MIC) E. coli ATCC 11229: ATCC 11229, 18 h. On the procedure:
as §3, §2

The next data set relates to C. albicans ATCC 10231. The following applies: ATCC 10231, 18 h. On the procedure: as §1, §2
Data set [1] in a line: head-to-tail lactamisation of linear tetrapeptide (N-terminal Pro amine + C-terminal Ile acid), HATU (2 equiv), DIPEA (3 equiv). As to conditions: the molecule shown is the open-chain precursor; 12-membered ring; CH2Cl2 (with ca. 0.2-0.5% DMF); 0.4 mM; 25.0 °C; 1.5 h.

As for `CC[C@H](C)[C@@H]1NC(=O)[C@H](C(C)C)NC(=O)[C@H](CC(C)C)NC(=O)[C@@H]2CCCN2C1=O` [c-PLVI, cyclo-(pro-leu-val-ile)] (cyclo(PLVI)), in the data set on T. mentagrophyte, the “minimum inhibitory concentration (MIC) T. mentagrophyte” value came to 62.50 µg/mL (≈ 148 µM). For the same compound, the “minimum inhibitory concentration (MIC) B. cereus ATCC 11778” value in the data set on B. cereus ATCC 11778 stood at 125 µg/mL (≈ 296 µM). Further, the “minimum inhibitory concentration (MIC) S. aureus ATCC 6538” value with S. aureus ATCC 6538 was 500 µg/mL (≈ 1180 µM). In addition, in the data set with K. pneumonia ATCC 2357, the “minimum inhibitory concentration (MIC) K. pneumonia ATCC 2357” value came to 250 µg/mL (≈ 592 µM). The “minimum inhibitory concentration (MIC) E. coli ATCC 11229” value with E. coli ATCC 11229 was 125 µg/mL (≈ 296 µM). Besides, the “minimum inhibitory concentration (MIC) C. albicans ATCC 10231” value with C. albicans ATCC 10231 is 500 µg/mL (≈ 1180 µM).
On to `CC[C@H](C)[C@@H]1NC(=O)[C@@H]2CCCN2C(=O)[C@H](CC(C)C)NC(=O)[C@@H]2CCCN2C1=O` [c-PLPI, cyclo(pro-leu-pro-ile)] (cyclo(PLPI)), for which, in the data set with S. aureus ATCC 6538, the “minimum inhibitory concentration (MIC) S. aureus ATCC 6538” value was 250 µg/mL (≈ 594 µM). Besides, in the data set with K. pneumonia ATCC 2357, the “minimum inhibitory concentration (MIC) K. pneumonia ATCC 2357” value came out at 250 µg/mL (≈ 594 µM). In the data set on E. coli ATCC 11229, the “minimum inhibitory concentration (MIC) E. coli ATCC 11229” value was 125 µg/mL (≈ 297 µM). For the same compound, the “minimum inhibitory concentration (MIC) C. albicans ATCC 10231” value in the data set on C. albicans ATCC 10231 was greater than 1000 µg/mL.
For `CC[C@H](C)[C@H](NC(=O)[C@@H]1CCCN1C(=O)[C@H](CC(C)C)NC(=O)[C@@H]1CCCN1)C(=O)O` [PLPI] (H-PLPI-OH), the “minimum inhibitory concentration (MIC) T. mentagrophyte” value in the data set with T. mentagrophyte was found to be 500 µg/mL (≈ 1140 µM). For the same compound, the “minimum inhibitory concentration (MIC) B. cereus ATCC 11778” value with B. cereus ATCC 11778 stood at 250 µg/mL (≈ 570 µM). In addition, in the data set with S. aureus ATCC 6538, the “minimum inhibitory concentration (MIC) S. aureus ATCC 6538” value worked out at 500 µg/mL (≈ 1140 µM). Further, in the data set with K. pneumonia ATCC 2357, the “minimum inhibitory concentration (MIC) K. pneumonia ATCC 2357” value came to 500 µg/mL (≈ 1140 µM). Further, in the data set with E. coli ATCC 11229, the “minimum inhibitory concentration (MIC) E. coli ATCC 11229” value turned out to be 500 µg/mL (≈ 1140 µM). Also, in the data set with C. albicans ATCC 10231, the “minimum inhibitory concentration (MIC) C. albicans ATCC 10231” value is greater than 1000 µg/mL.
As for `O=C(O)c1cn(C2CC2)c2cc(N3CCNCC3)c(F)cc2c1=O` [Ciprofloxacin, reference compound], the MIC was found to be 0.195 µg/mL (≈ 0.589 µM) in the data set on B. cereus ATCC 11778 (Bacillus cereus, ATCC11778, 18 h, read-out: minimum inhibitory concentration (MIC) B. cereus ATCC 11778); 0.098 µg/mL (≈ 0.296 µM) with S. aureus ATCC 6538 (Staphylococcus aureus, ATCC6538, 18 h, read-out: minimum inhibitory concentration (MIC) S. aureus ATCC 6538); 0.391 µg/mL (≈ 1.18 µM) with K. pneumonia ATCC 2357 (Klebsiella pneumoniae, ATCC2357, 18 h, read-out: minimum inhibitory concentration (MIC) K. pneumonia ATCC 2357); 1.56 µg/mL (≈ 4.71 µM) with E. coli ATCC 11229 (Escherichia coli, ATCC11229, 18 h, read-out: minimum inhibitory concentration (MIC) E. coli ATCC 11229).
For `CC[C@H](C)[C@H](NC(=O)[C@H](Cc1ccccc1)NC(=O)[C@H](CC(C)C)NC(=O)[C@@H]1CCCN1)C(=O)O` [H-Pro-Leu-Phe-Ile-OH], in data set [1], the ring closure, isolated yield is 46%.
Still for that read-out and setting: to `CC[C@H](C)[C@H](NC(=O)[C@@H]1CCCN1C(=O)[C@H](CC(C)C)NC(=O)[C@@H]1CCCN1)C(=O)O` [H-Pro-Leu-Pro-Ile-OH] belongs 53%; to `CC[C@H](C)[C@H](NC(=O)[C@H](C)NC(=O)[C@H](CC(C)C)NC(=O)[C@@H]1CCCN1)C(=O)O` [H-Pro-Leu-Ala-Ile-OH], 70%; to `CC[C@H](C)[C@H](NC(=O)[C@H](Cc1ccccc1)NC(=O)[C@H](CCCCNC(=O)OC(C)(C)C)NC(=O)[C@@H]1CCCN1)C(=O)O` [H-Pro-Lys(Boc)-Phe-Ile-OH], 50%.
Take `CC[C@H](C)[C@H](NC(=O)[C@@H](NC(=O)[C@H](CC(C)C)NC(=O)[C@@H]1CCCN1)C(C)C)C(=O)O` [PLVI] (H-PLVI-OH): the “minimum inhibitory concentration (MIC) B. cereus ATCC 11778” value in the data set with B. cereus ATCC 11778 amounted to 500 µg/mL (≈ 1130 µM). Besides, the “minimum inhibitory concentration (MIC) S. aureus ATCC 6538” value in the data set with S. aureus ATCC 6538 is greater than 1000 µg/mL. In addition, the “minimum inhibitory concentration (MIC) K. pneumonia ATCC 2357” value in the data set with K. pneumonia ATCC 2357 was determined as 500 µg/mL (≈ 1130 µM). Besides, the “minimum inhibitory concentration (MIC) E. coli ATCC 11229” value in the data set on E. coli ATCC 11229 is 500 µg/mL (≈ 1130 µM). Moreover, the “minimum inhibitory concentration (MIC) C. albicans ATCC 10231” value with C. albicans ATCC 10231 was greater than 1000 µg/mL.
